Measurements: patent publication US20190008147A1, “COMPOSITION CONTAINING 1,2-DIBROMO-2,4-DICYANOBUTANE (DBDCB) AND AT LEAST ONE ORGANIC ACID AND/OR THE DERIVATIVES THEREOF” (priority 2015, published 2019)

Legend:
Assay type in all cases: cell-based
Alternaria alternata = test: Minimum inhibitory concentration and synergistic index (Kull); conditions: for QA: amount of DBDCB used on its own that suppresses growth
Description: (§1) [formula] • where: • Qa=the amount of component A in the active substance mixture which achieves the desired effect, i.e. no microbial growth, • QA=the amount of component A which, when used on its own, suppresses the growth of the microorganisms, • Qb=the amount of component B in the active substance mixture which achieves the desired effect, i.e. no microbial growth, • and • QB=the amount of component B which, when used on its own, suppresses the growth of the microorganisms.
(§2) A synergistic index obtained according to the above formula of SI<1 indicates a synergistic effect for the active substance mixture.
(§3) Using various test pathogens, the minimum inhibitory concentration was determined and, on the basis thereof with the aid of the formula by F. C. Kull et al., the synergistic effects of the listed compositions according to the invention were calculated.

Pseudomonas aeruginosa = test: as above; conditions: for QA: amount of DBDCB used on its own that suppresses growth
Description: as §1, §2, §3

Aspergillus brasiliensis = test: as above; conditions: Table 9
Description: as §1, §2, §3

Bacillus subtilis = test: as above; conditions: Table 8
Description: as §1, §2, §3

Staphylococcus aureus = test: as above; conditions: Table 1
Description: as §1, §2, §3

Geotrichum candidum = test: as above; conditions: Table 3
Description: as §1, §2, §3

[1] = system: Yeasts: Candida albicans and Rhodotorula rubra; test: Microbiological load test, preservation of a dishwashing liquid: yeasts; conditions: Y = yeasts, 1 week after pathogen addition, biocide added [wt %]: A DBDCB 0.05, B salicylic acid 0.02, C DBDCB 0.02 and salicylic acid 0.016
Description: (§4) The preserving effect of an inventive composition comprising DBDCB and Salix alba extract in a dishwashing liquid was investigated using a microbiological load test. The microbiological load test examines the susceptibility of water-based products to microbial attack and the effect of preservatives. To this end, the preservatives are incorporated in defined concentrations into the water-based systems. […] With knowledge of the microorganism populations prevalent in detergents of the type described here, the experiment employed a mixture of the following microorganism species for testing: Yeasts: Candida albicans and Rhodotorula rubra. […] The activity is deemed poor when, compared to the unpreserved sample, no reduction or only a minor reduction of the microbe level is observed (residual level of at least 10^5 bacteria/10^4 mold cells/yeast cells per g) (score of 0=poor). The following compositions were used in the experiments depicted in table 10: • A: DBDCB • B: […]

[2] = system: Molds: Acremonium strictum, Aspergillus niger and Geotrichum candidum; test: Microbiological load test, preservation of a dishwashing liquid: molds; conditions: M = molds, 1 week after pathogen addition, biocide added [wt %]: A DBDCB 0.05, B salicylic acid 0.02, C DBDCB 0.02 and salicylic acid 0.016
Description: as §4, with “Molds: Acremonium strictum, Aspergillus niger” for “Yeasts: Candida albicans”, “Geotrichum candidum.” for “Rhodotorula rubra.”

[3] = system: Bacteria: Escherichia coil, Pseudomonas aeruginosa, Staphylococcus aureus, Pseudomonas putida, Enterobacter gergoviae; test: Microbiological load test, preservation of a dishwashing liquid: bacteria; conditions: B = bacteria, 1 week after pathogen addition, biocide added [wt %]: A DBDCB 0.05, B salicylic acid 0.02, C DBDCB 0.02 and salicylic acid 0.016
Description: as §4, with “Bacteria: Escherichia coil, Pseudomonas aeruginosa, Staphylococcus aureus, Pseudomonas putida, Enterobacter gergoviae” for “Yeasts: Candida albicans and Rhodotorula rubra.”

[4] = amount of benzoic acid used on its own that suppresses growth
[5] = amount of citric acid used on its own that suppresses growth
[6] = amount of DBDCB used on its own that suppresses growth

## O=C(O)c1ccccc1O [salicylic acid]
Alternaria alternata; amount of salicylic acid used on its own that suppresses growth, Table 7
  QB: 500 ppm
Pseudomonas aeruginosa; amount of salicylic acid used on its own that suppresses growth, Table 6
  QB: 3001 ppm

## CC(O)C(=O)O (stereo not drawn) [lactic acid]
Alternaria alternata; amount of lactic acid used on its own that suppresses growth, Table 5
  QB: 3001 ppm
Pseudomonas aeruginosa; amount of lactic acid used on its own that suppresses growth, Table 4
  QB: 3001 ppm

## O=C(O)c1ccccc1 [benzoic acid]
Aspergillus brasiliensis; [4]
  QB: 1000 ppm
Bacillus subtilis; [4]
  QB: 3000 ppm

## O=C(O)CC(O)(CC(=O)O)C(=O)O [citric acid]
Alternaria alternata; amount of citric acid used on its own that suppresses growth, Table 2
  QB: 3001 ppm
Staphylococcus aureus; [5]
  QB: 3001 ppm
Geotrichum candidum; [5]
  QB: 3001 ppm

## N#CCCC(Br)(C#N)CBr (stereo not drawn) [DBDCB, 1,2-dibromo-2,4-dicyanobutane]
[1]; week 1
  Activity of the biocides in a dishwashing liquid, yeasts, Week 1: 3 (3 = very good activity)
[1]; week 2
  Activity of the biocides in a dishwashing liquid, yeasts, Week 2: 3 (3 = very good activity)
[1]; week 3
  Activity of the biocides in a dishwashing liquid, yeasts, Week 3: 0 (0 = poor activity)
[1]; week 4
  Activity of the biocides in a dishwashing liquid, yeasts, Week 4: 0 (0 = poor activity)
[1]; week 5
  Activity of the biocides in a dishwashing liquid, yeasts, Week 5: 0 (0 = poor activity)
[1]; week 6
  Activity of the biocides in a dishwashing liquid, yeasts, Week 6: 0 (0 = poor activity)
Alternaria alternata; Table 2
  QA: 25 ppm
Alternaria alternata; Table 5
  QA: 25 ppm
Alternaria alternata; Table 7
  QA: 25 ppm
Aspergillus brasiliensis; [6]
  QA: 250 ppm
Pseudomonas aeruginosa; Table 4
  QA: 500 ppm
Pseudomonas aeruginosa; Table 6
  QA: 250 ppm
Staphylococcus aureus; [6]
  QA: 50 ppm
Geotrichum candidum; [6]
  QA: 100 ppm
Bacillus subtilis; [6]
  QA: 25 ppm
[2]; week 1
  Activity of the biocides in a dishwashing liquid, molds, Week 1: 3 (3 = very good activity)
[2]; week 2
  Activity of the biocides in a dishwashing liquid, molds, Week 2: 3 (3 = very good activity)
[2]; week 3
  Activity of the biocides in a dishwashing liquid, molds, Week 3: 0 (0 = poor activity)
[2]; week 4
  Activity of the biocides in a dishwashing liquid, molds, Week 4: 0 (0 = poor activity)
[2]; week 5
  Activity of the biocides in a dishwashing liquid, molds, Week 5: 0 (0 = poor activity)
[2]; week 6
  Activity of the biocides in a dishwashing liquid, molds, Week 6: 0 (0 = poor activity)
[3]; week 1
  Activity of the biocides in a dishwashing liquid, bacteria, Week 1: 1 (1 = fair activity)
[3]; week 2
  Activity of the biocides in a dishwashing liquid, bacteria, Week 2: 0 (0 = poor activity)
[3]; week 3
  Activity of the biocides in a dishwashing liquid, bacteria, Week 3: 0 (0 = poor activity)
[3]; week 4
  Activity of the biocides in a dishwashing liquid, bacteria, Week 4: 0 (0 = poor activity)
[3]; week 5
  Activity of the biocides in a dishwashing liquid, bacteria, Week 5: 0 (0 = poor activity)
[3]; week 6
  Activity of the biocides in a dishwashing liquid, bacteria, Week 6: 0 (0 = poor activity)
